# Data: patent publication US10206937B2, “Boronic acid derivatives and therapeutic uses thereof” (Qpex Biopharma, Inc., priority 2014, dated 2019)
# Tested on: strains of Enterobacteriaceae producing various carbapenemases (class A, D and B; 104 strains)
# Experiment: Antibiotics potentiation by Compound 27 (MIC; meropenem, doripenem, ertapenem, cefepime)
# Assay type: cell-based
# Settings: + 27 = with Compound 27 at fixed 4 μg/ml
smiles,measurement,setting,value
C[C@@H](O)[C@H]1C(=O)N2C(C(=O)O)=C(S[C@@H]3CN[C@H](C(=O)N(C)C)C3)[C@H](C)[C@H]12 [M],MIC,"strain KP1081 Klebsiella pneumoniae (NDM-1, TEM-1, SHV-11, CMY-6, CTX-M-15)",Z (MIC of greater than 10 μg/mL)
same,MIC,"strain KP1082 Klebsiella pneumoniae (KPC-2, SHV-1)",Y (MIC of 1 μg/mL to 10 μg/mL)
same,MIC,"strain KP1083 Klebsiella pneumoniae (KPC-3, SHV-1, TEM-1)",Y (MIC of 1 μg/mL to 10 μg/mL)
same,MIC,"strain KP1084 Klebsiella pneumoniae (KPC-3, SHV-11, TEM-1)",Z (MIC of greater than 10 μg/mL)
same,MIC,"strain KP1086 Klebsiella pneumoniae (OXA-48, CTX-M-15, TEM, SHV)",Z (MIC of greater than 10 μg/mL)
same,MIC,"strain KP1087 Klebsiella pneumoniae (KPC-2, CTX-M-15, SHV-11, TEM-1)",Z (MIC of greater than 10 μg/mL)
same,MIC,"strain KP1088 Klebsiella pneumoniae (KPC-3, SHV-11, TEM-1)",Y (MIC of 1 μg/mL to 10 μg/mL)
same,MIC,"strain KP1089 Klebsiella pneumonias (OXA-181, CTX-M-15, TEM, SHV)",Y (MIC of 1 μg/mL to 10 μg/mL)
same,MIC,strain KP1095 Klebsiella pneumoniae (KPC-2 TEM-1 SHV-1),Y (MIC of 1 μg/mL to 10 μg/mL)
same,MIC,strain KP1096 Klebsiella pneumoniae (KPC-2 TEM-181 SHV-11),Y (MIC of 1 μg/mL to 10 μg/mL)
same,MIC,strain KP1097 Klebsiella pneumonias (IMP-1),Z (MIC of greater than 10 μg/mL)
same,MIC,strain KP1098 Klebsiella pneumoniae (IMP-26),Z (MIC of greater than 10 μg/mL)
same,MIC,strain KP1104 Klebsiella pneumoniae (KPC TEM),Z (MIC of greater than 10 μg/mL)
same,MIC,strain KP1105 Klebsiella pneumoniae (KPC TEM SHV),Z (MIC of greater than 10 μg/mL)
same,MIC,strain KP1159 Klebsiella pneumoniae (SHV-1(2b); CTX-M-15; IMP-4),Z (MIC of greater than 10 μg/mL)
same,MIC,strain KP1160 Klebsiella pneumoniae (SHV-28(2be); CTX-M-15; IMP-26),Z (MIC of greater than 10 μg/mL)
same,MIC,strain KP1161 Klebsiella pneumoniae (NDM-1),Z (MIC of greater than 10 μg/mL)
same,MIC,strain KP1164 Klebsiella pneumoniae (SHV-12(2be); VIM-1),Z (MIC of greater than 10 μg/mL)
same,MIC,strain KP1165 Klebsiella pneumoniae (SHV-11(2b); CTX-M-15; VIM-27),Z (MIC of greater than 10 μg/mL)
same,MIC,strain KP1166 Klebsiella pneumoniae (SHV-5(2be); VIM-26),Z (MIC of greater than 10 μg/mL)
same,MIC,strain KP1167 Klebsiella pneumoniae (SHV-12(2be); VIM-1),X (MIC of less than 1 μg/mL)
same,MIC,strain KP1169 Klebsiella pneumoniae (SHV-11(2b); VIM-1),Z (MIC of greater than 10 μg/mL)
same,MIC,strain KP1170 Klebsiella pneumoniae (SHV-11(2b); CTX-M-15; NDM-1),Z (MIC of greater than 10 μg/mL)
same,MIC,strain KP1172 Klebsiella pneumoniae (SHV-31(2be); DHA-1; VIM-1),Y (MIC of 1 μg/mL to 10 μg/mL)
same,MIC,strain KP1173 Klebsiella pneumoniae (TEM-33(2br); CTX-M-15; IMP-1),Y (MIC of 1 μg/mL to 10 μg/mL)
same,MIC,strain KP1174 Klebsiella pneumoniae (CTX-M-14; IMP-1),Y (MIC of 1 μg/mL to 10 μg/mL)
same,MIC,strain KP1175 Klebsiella pneumoniae (SHV-OSBL(2b); VIM-1),Z (MIC of greater than 10 μg/mL)
same,MIC,"strain KP1177 Klebsiella pneumoniae (SHV-OSBL(2b), TEM-OSBL(2b); CTX-M-15; NDM-1)",Z (MIC of greater than 10 μg/mL)
same,MIC,strain KP1178 Klebsiella pneumoniae (SHV-OSBL(2b;) TEM-OSBL(2b); CTX-M-15; NDM-1),Z (MIC of greater than 10 μg/mL)
same,MIC,"strain KP1179 Klebsiella pneumoniae (SHV-12(2be), TEM-OSBL(2b); CTX-M-15; NDM-7)",Z (MIC of greater than 10 μg/mL)
same,MIC,"strain KP1180 Klebsiella pneumoniae (SHV-OSBL(2b), TEM-OSBL(2b); CTX-M-15; DHA-1; IMP-26)",Y (MIC of 1 μg/mL to 10 μg/mL)
same,MIC,strain KP1181 Klebsiella pneumoniae (SHV-OSBL(2b); CTX-M-15; IMP-26),Y (MIC of 1 μg/mL to 10 μg/mL)
same,MIC,"strain KP1183 Klebsiella pneumoniae (SHV-OSBL(2b), TEM-OSBL(2b); CTX-M-15; NDM-1)",Z (MIC of greater than 10 μg/mL)
same,MIC,strain KP1184 Klebsiella pneumoniae (SHV-OSBL(2b); IMP-1),Y (MIC of 1 μg/mL to 10 μg/mL)
same,MIC,"strain KP1185 Klebsiella pneumoniae (SHV-OSBL(2b), TEM-OSBL(2b); IMP-4)",Z (MIC of greater than 10 μg/mL)
same,MIC,strain KP1186 Klebsiella pneumoniae (CTX-M-15; NDM-1),Z (MIC of greater than 10 μg/mL)
same,MIC,"strain KP1187 Klebsiella pneumoniae (SHV-55(2be), TEM-OSBL(2b); CTX-M-15; NDM-1)",Z (MIC of greater than 10 μg/mL)
same,MIC,strain KP1188 Klebsiella pneumoniae (SHV-OSBL(2b); CTX-M-15; NDM-1),Z (MIC of greater than 10 μg/mL)
same,MIC,strain KP1189 Klebsiella pneumoniae (TEM-OSBL(2b); CTX-M-15; CTX-M-27; NDM-1),Z (MIC of greater than 10 μg/mL)
same,MIC,strain KPM1123 Klebsiella pneumoniae (KPC-2 TEM SHV),Z (MIC of greater than 10 μg/mL)
same,MIC,strain KPM1202 Klebsiella pneumoniae (KPC SHV TEM),Y (MIC of 1 μg/mL to 10 μg/mL)
same,MIC,strain KPM1203 Klebsiella pneumoniae (KPC SHV TEM),Y (MIC of 1 μg/mL to 10 μg/mL)
same,MIC,strain KPM1344 Klebsiella pneumoniae (VIM-1),Y (MIC of 1 μg/mL to 10 μg/mL)
same,MIC,strain KPM1345 Klebsiella pneumoniae (VIM-1 SHV),Z (MIC of greater than 10 μg/mL)
same,MIC,strain KPM1347 Klebsiella pneumoniae (NDM-1 SHV CTX-M-15),Z (MIC of greater than 10 μg/mL)
same,MIC,"strain KX1017 Klebsiella oxytoca (KPC-2, OXA-2, SHV-30)",Y (MIC of 1 μg/mL to 10 μg/mL)
same,MIC,"strain KX1018 Klebsiella oxytoca (KPC-2, SHV-40, OXY-1)",Y (MIC of 1 μg/mL to 10 μg/mL)
same,MIC,"strain KX1019 Klebsiella oxytoca (KPC-2, OXA-2)",Y (MIC of 1 μg/mL to 10 μg/mL)
same,MIC,strain PM1024 Proteus mirabilis (TEM-1(2b); CMY-16; VIM-1),Y (MIC of 1 μg/mL to 10 μg/mL)
same,MIC,strain PM1026 Proteus mirabilis (DHA-1; IMP-26),Z (MIC of greater than 10 μg/mL)
same,MIC,strain PM1027 Proteus mirabilis (VIM-5),Z (MIC of greater than 10 μg/mL)
same,MIC,strain SM1023 Serratia marcescens (VIM-4),Z (MIC of greater than 10 μg/mL)
